Assay results: patent US8324245B2, “Quinoline derivative and quinazoline derivative inhibiting self-phosphorylation of hepatocytus proliferator receptor, and medicinal composition containing the same” (Kyowa Hakko Kirin Co., Ltd., priority 2001, dated 2012)
pIC50: −log10 of the molar value.

Biological target: T1, met (HGF receptor) in human gastric cancer cells MKN45 (Homo sapiens, UniProt P08581)
T1 construct: endogenous in cells; host or cells: MKN45 human gastric cancer cells
Test: Inhibitory activity against met-autophosphorylation using ELISA method (2), MKN45 cells, HGF-independent
Assay type: cell-based
Method in brief: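 MKN45 cells, 3×10^4 per well in RPMI with 0.1% FCS overnight, were exposed to compound in DMSO for 1 h at 37 °C without HGF. Lysates were captured on anti-phosphotyrosine (PY20) plates, Met detected with anti-Met and peroxidase secondary antibody, absorbance at 450 nm.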

T1 sequence (P08581 25-1390): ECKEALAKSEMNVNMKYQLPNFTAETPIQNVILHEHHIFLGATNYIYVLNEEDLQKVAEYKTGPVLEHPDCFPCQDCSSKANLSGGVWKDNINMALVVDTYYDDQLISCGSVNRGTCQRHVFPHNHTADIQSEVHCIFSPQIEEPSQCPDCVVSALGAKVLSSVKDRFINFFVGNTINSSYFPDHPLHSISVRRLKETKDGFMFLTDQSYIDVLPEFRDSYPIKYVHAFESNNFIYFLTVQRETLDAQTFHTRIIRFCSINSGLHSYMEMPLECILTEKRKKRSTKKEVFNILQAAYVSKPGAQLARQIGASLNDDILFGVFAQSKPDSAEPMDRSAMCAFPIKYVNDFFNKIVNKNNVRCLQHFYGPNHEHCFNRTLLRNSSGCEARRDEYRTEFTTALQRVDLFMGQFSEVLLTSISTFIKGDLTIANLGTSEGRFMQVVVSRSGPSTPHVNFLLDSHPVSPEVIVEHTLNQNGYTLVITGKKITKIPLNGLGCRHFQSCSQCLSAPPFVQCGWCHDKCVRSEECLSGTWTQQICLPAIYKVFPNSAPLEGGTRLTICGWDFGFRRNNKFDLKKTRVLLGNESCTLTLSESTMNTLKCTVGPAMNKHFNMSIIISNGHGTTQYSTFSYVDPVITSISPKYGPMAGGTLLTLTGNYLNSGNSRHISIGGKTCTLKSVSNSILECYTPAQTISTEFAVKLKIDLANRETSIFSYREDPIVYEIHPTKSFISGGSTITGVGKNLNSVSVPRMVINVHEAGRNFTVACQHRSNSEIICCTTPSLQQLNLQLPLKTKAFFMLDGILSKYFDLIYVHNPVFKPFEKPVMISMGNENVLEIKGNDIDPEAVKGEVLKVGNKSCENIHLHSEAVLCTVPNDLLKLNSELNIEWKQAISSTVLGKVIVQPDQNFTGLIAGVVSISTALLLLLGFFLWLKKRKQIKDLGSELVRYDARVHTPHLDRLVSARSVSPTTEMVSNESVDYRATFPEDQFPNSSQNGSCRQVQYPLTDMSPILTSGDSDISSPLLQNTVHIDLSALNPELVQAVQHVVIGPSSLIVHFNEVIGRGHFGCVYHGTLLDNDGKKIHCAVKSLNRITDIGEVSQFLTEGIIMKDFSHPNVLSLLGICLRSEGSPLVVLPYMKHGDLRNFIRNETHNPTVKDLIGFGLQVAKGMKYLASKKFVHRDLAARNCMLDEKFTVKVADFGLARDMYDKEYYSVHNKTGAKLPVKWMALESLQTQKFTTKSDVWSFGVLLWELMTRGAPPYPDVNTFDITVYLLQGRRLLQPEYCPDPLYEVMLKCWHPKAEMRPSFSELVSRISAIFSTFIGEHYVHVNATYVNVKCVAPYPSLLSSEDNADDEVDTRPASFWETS

Row | SMILES | pIC50
1 | COc1cc2nccc(Oc3ccc(NC(=O)C(C)C(=O)Nc4ccc(F)cc4F)cc3)c2cc1OC (stereo not drawn) [Example 15, N-(2,4-difluorophenyl)-N′-[4-(6,7-dimethoxy-quinolin-4-yloxy)phenyl]-2-methylmalonamide] | 6.52
2 | COc1cc2nccc(Oc3ccc(NC(=O)NC(=O)Cc4cc(F)ccc4F)cc3F)c2cc1OC [Example 133, 1-[2-(2,5-difluorophenyl)acetyl]-3-[4-(6,7-dimethoxyquinolin-4-yloxy)-3-fluorophenyl]urea] | 6.58
3 | COc1cc2c(Oc3ccc(NC(=S)NC(=O)Cc4ccc(Cl)cc4)cc3F)ccnc2cc1OCC(O)CN1CCCC1 (stereo not drawn) [Example 328, 1-[2-(4-Chloro-phenyl)-acetyl]-3-{3-fluoro-4-[7-(2-hydroxy-3-pyrrolidin-1-yl-propoxy)-6-methoxy-quinolin-4-yloxy]-phenyl}-thiourea] | 7.36
4 | COc1cc2nccc(Oc3ccc(NC(=O)CC(=O)NC4CCC4)cc3)c2cc1OC [Example 212, N-cyclobutyl-N′-[4-(6,7-dimethoxyquinolin-4-yloxy)phenyl]malonamide] | 6.42
5 | COc1cc2nccc(Oc3ccc(NC(=O)NC(=O)Cc4ccc(F)c(F)c4)cc3F)c2cc1OC [Example 35, 1-[2-(3,4-difluorophenyl)acetyl]-3-[4-(6,7-dimethoxyquinolin-4-yloxy)-3-fluorophenyl]urea] | 7.38
6 | COc1cc2c(Oc3ccc(NC(=O)NC(=O)Cc4ccccc4)cc3F)ccnc2cc1OCCCCN1CCN(C)CC1 [Example 12, 1-(3-fluoro-4-{6-methoxy-7-[4-(4-methyl-piperazin-1-yl)-butoxy]quinolin-4-yloxy}phenyl)-3-phenylacetylurea] | 6.70
7 | COc1cc2c(Oc3ccc(NC(=O)NC(=O)Cc4ccccc4)cc3F)ccnc2cc1OCCCN1CCC(CO)CC1 [Example 308, 1-(3-Fluoro-4-{7-[3-(4-hydroxymethyl-piperidin-1-yl)-propoxy]-6-methoxy-quinolin-4-yloxy}-phenyl)-3-phenylacetyl-urea] | 7.67
8 | COc1cc2c(Oc3ccc(NC(=O)NC(=O)Cc4ccc(F)cc4)cc3F)ccnc2cc1OCCCN1CCCCC1 [Example 47, 1-{3-fluoro-4-[6-methoxy-7-(3-piperidin-1-yl-propoxy)quinolin-4-yloxy]phenyl}-3-[2-(4-fluorophenyl)-acetyl]urea] | 6.67
9 | CCN(CC)CC(=O)NC(=O)Nc1ccc(Oc2ccnc3cc(OC)c(OC)cc23)c(Cl)c1 [Example 110, 1-[3-chloro-4-(6,7-dimethoxyquinolin-4-yloxy)phenyl]-3-(2-diethylaminoacetyl)urea] | 5.62
10 | COc1cc2nccc(Oc3ccc(NC(=S)NC(=O)Cc4ccc(F)cc4)cc3)c2cc1OC [Example 71, 1-[4-(6,7-dimethoxyquinolin-4-yloxy)phenyl]-3-[2-(4-fluorophenyl)acetyl]thiourea] | 7.52
11 | COc1cc2nccc(Oc3ccc(NC(=S)NC(=O)Cc4ccc(Cl)cc4)cc3Cl)c2cc1OC [Example 189, 1-[3-chloro-4-(6,7-dimethoxyquinolin-4-yloxy)phenyl]-3-[2-(4-chlorophenyl)acetyl]thiourea] | 6.63
12 | COc1cc2c(Oc3ccc(NC(=O)NC(=O)Cc4ccc(F)cc4)cc3F)ccnc2cc1OCCN1CCCCC1 [Example 48, 1-{3-fluoro-4-[6-methoxy-7-(2-piperidin-1-yl-ethoxy)quinolin-4-yloxy]phenyl}-3-[2-(4-fluorophenyl)-acetyl]urea] | 6.65
13 | COc1cc2nccc(Oc3ccc(NC(=O)NC(=O)Cc4ccccc4)c(F)c3)c2cc1OC [Example 16, 1-[4-(6,7-dimethoxyquinolin-4-yloxy)-2-fluoro-phenyl]-3-phenylacetylurea] | 7.48
14 | COc1cc2nccc(Oc3ccc(NC(=O)C(C)C(=O)Nc4ccccc4)cc3)c2cc1OC (stereo not drawn) [Example 225, N-[4-(6,7-dimethoxyquinolin-4-yloxy)phenyl]-2-methyl-N′-phenylmalonamide] | 6.55
15 | COc1cc(Oc2ccnc3cc(OC)c(OC)cc23)ccc1NC(=S)NC(=O)Cc1ccccc1 [Example 69, 1-[4-(6,7-dimethoxyquinolin-4-yloxy)-2-methoxyphenyl]-3-phenylacetylthiourea] | 8.36
16 | COc1cc2nccc(Oc3ccc(NC(=S)NC(=O)Cc4cccc(Cl)c4)cc3F)c2cc1OC [Example 173, 1-[2-(3-chlorophenyl)acetyl]-3-[4-(6,7-dimethoxyquinolin-4-yloxy)-3-fluorophenyl]thiourea] | 6.65
17 | COc1cc2nccc(Oc3ccc(NC(=O)NC(=O)Cc4ccccc4F)cc3)c2cc1OC [Example 25, 1-[4-(6,7-dimethoxyquinolin-4-yloxy)phenyl]-3-[2-(2-fluorophenyl)acetyl]urea] | 6.85
18 | COc1cccc(CC(=O)NC(=S)Nc2ccc(Oc3ccnc4cc(OC)c(OC)cc34)cc2F)c1 [Example 185, 1-[4-(6,7-dimethoxyquinolin-4-yloxy)-2-fluorophenyl]-3-[2-(3-methoxyphenyl)acetyl]thiourea] | 6.61

Row | SMILES | pIC50
19 | COc1cc2c(Oc3ccc(NC(=S)NC(=O)Cc4ccccc4F)cc3F)ccnc2cc1OCC(O)CN1CCCC1 (stereo not drawn) [Example 319, 1-{3-Fluoro-4-[7-(2-hydroxy-3-pyrrolidin-1-yl-propoxy)-6-methoxy-quinolin-4-yloxy]-phenyl}-3-[2-(2-fluoro-phenyl)-acetyl]-thiourea] | 6.90
20 | COc1cc2nccc(Oc3ccc(NC(=S)NC(=O)Cc4cccc(F)c4)cc3)c2cc1OC [Example 164, 1-[4-(6,7-dimethoxyquinolin-4-yloxy)phenyl]-3-[2-(3-fluorophenyl)acetyl]thiourea] | 6.62
21 | COc1ccccc1NC(=O)NC(=O)Nc1ccc(Oc2ccnc3cc(OC)c(OC)cc23)cc1 [Example 266, N-(2-methoxyphenyl)-({[4-(6,7-dimethoxy-quinolin-4-yloxy)anilino]carbonyl}amino)methanamide] | 6.74
22 | COc1cc2nccc(Oc3ccc(NC(=S)NC(=O)Cc4ccsc4)cc3F)c2cc1OC [Example 85, 1-[4-(6,7-dimethoxyquinolin-4-yloxy)-3-fluoro-phenyl]-3-(2-thiophen-3-ylacetyl)thiourea] | 7.31
23 | COc1cc2nccc(Oc3ccc(NC(=S)NC(=O)CCC4CCCC4)cc3)c2cc1OC [Example 161, 1-(3-cyclopentylpropionyl)-3-[4-(6,7-dimethoxyquinolin-4-yloxy)phenyl]thiourea] | 6.61
24 | COc1cc2nccc(Oc3ccc(NC(=O)NC(=O)Nc4cccc(C)n4)cc3)c2cc1OC [Example 234, N-(6-methyl-2-pyridyl)-({[4-(6,7-dimethoxy-quinolin-4-yloxy)anilino]carbonyl}amino)methanamide] | 6.34
25 | COc1cc2nccc(Oc3ccc(NC(=O)NC(=O)Nc4ccc(C)cn4)cc3)c2cc1OC [Example 235, N-(5-methyl-2-pyridyl)-({[4-(6,7-dimethoxy-quinolin-4-yloxy)anilino]carbonyl}amino)methanamide] | 6.67
26 | COc1cc2nccc(Oc3ccc(NC(=O)NC(=O)Nc4cccc(F)c4)cc3)c2cc1OC [Example 251, N-(3-fluorophenyl)-({[4-(6,7-dimethoxy-quinolin-4-yloxy)anilino]carbonyl}amino)methanamide] | 6.41
27 | COc1cc2nccc(Oc3ccc(NC(=O)CC(=O)Nc4cccc(Cl)c4)cc3)c2cc1OC [Example 210, N-(3-chlorophenyl)-N′-[4-(6,7-dimethoxy-quinolin-4-yloxy)phenyl]malonamide] | 6.64
28 | COc1cc2nccc(Oc3ccc(NC(=O)NC(=O)Nc4c(Cl)cccc4Cl)cc3)c2cc1OC [Example 263, N-(2,6-dichlorophenyl)-({[4-(6,7-dimethoxy-quinolin-4-yloxy)anilino]carbonyl}amino)methanamide] | 6.32
29 | COc1cc2nccc(Oc3ccc(NC(=S)NC(=O)Cc4ccccc4Cl)cc3)c2cc1OC [Example 59, 1-[2-(2-chlorophenyl)acetyl]-3-[4-(6,7-dimethoxyquinolin-4-yloxy)phenyl]thiourea] | 6.71
30 | COc1cc2nccc(Oc3ccc(NC(=S)NC(=O)Cc4c(F)ccc(F)c4F)c(F)c3)c2cc1OC [Example 205, 1-[4-(6,7-dimethoxyquinolin-4-yloxy)-2-fluorophenyl]-3-[2-(2,3,6-trifluorophenyl)acetyl]-thiourea] | 6.58
31 | COc1cc2nccc(Oc3ccc(NC(=S)NC(=O)CCCCl)cc3F)c2cc1OC [Example 148, 1-(4-chloro-butyryl)-3-[4-(6,7-dimethoxy-quinolin-4-yloxy)-3-fluorophenyl]thiourea] | 5.61
32 | COc1cc2c(Oc3ccc(NC(=S)NC(=O)Cc4ccc(F)cc4)cc3F)ccnc2cc1OCC(O)CN1CCCCC1 (stereo not drawn) [Example 329, 1-{3-Fluoro-4-[7-(2-hydroxy-3-piperidin-1-yl-propoxy)-6-methoxy-quinolin-4-yloxy]-phenyl}-3-[2-(4-fluoro-phenyl)-acetyl]-thiourea] | 7.29
33 | COc1cc2nccc(Oc3ccc(NC(=O)NC(=O)Cc4ccc(C)cc4)c(F)c3)c2cc1OC [Example 124, 1-[4-(6,7-dimethoxyquinolin-4-yloxy)-2-fluorophenyl]-3-(2-p-tolylacetyl)urea] | 6.58
34 | COc1cc2nccc(Oc3ccc(NC(=S)NC(=O)CCCC(C)C)cc3F)c2cc1OC [Example 179, 1-[4-(6,7-dimethoxyquinolin-4-yloxy)-3-fluorophenyl]-3-(5-methyl-hexanoyl)thiourea] | 6.58
35 | COc1cc2nccc(Oc3ccc(NC(=O)NC(=O)Cc4ccccc4F)cc3Cl)c2cc1OC [Example 28, 1-[3-chloro-4-(6,7-dimethoxyquinolin-4-yloxy)-phenyl]-3-[2-(2-fluorophenyl)acetyl]urea] | 6.79
36 | COc1cc2c(Oc3ccc(NC(=S)NC(=O)Cc4ccccc4)cc3F)ccnc2cc1OCCN1CCC(CO)CC1 [Example 284, 1-(3-Fluoro-4-{7-[2-(4-hydroxymethyl-piperidin-1-yl)-ethoxy]-6-methoxy-quinolin-4-yloxy}-phenyl)-3-phenylacetyl-thiourea] | 7.82
